Test results taken from patent publication US20160367623A1, “AGONISTS OF GUANYLATE CYCLASE USEFUL FOR THE TREATMENT OF GASTROINTESTINAL DISORDERS, INFLAMMATION, CANCER AND OTHER DISORDERS” (priority 2015, published 2016).
Bridge positions count the residues as written; N and C are the ends. Ends that are not written are not given here.

System: patients with chronic idiopathic constipation (CIC)
Assay: Second phase 3 CIC trial: CSBM weekly responders by week
Assay type: in vivo, human
Conditions: MRA
Text: Both trials include a two-week pre-treatment baseline period, a 12-week treatment period, and a two-week post-treatment period. The phase 3 CIC program was designed to support regulatory submission in the U. S.
The primary endpoint for both trials is the proportion of durable overall responders (%), which is the current regulatory endpoint required for U.S. approval in CIC. The FDA has defined a durable overall responder as a patient who fulfills both ≧3 complete spontaneous bowel movements (CSBMs) per week plus an increase of ≧1 CSBM from baseline in the same week, for 9 out of the 12 treatment weeks. In addition, the same patient must be an overall responder for at least 3 of the last 4 treatment weeks in order to be considered a durable overall responder.
Patients were selected using Rome 3 criteria modified for CIC and had (1) fewer than 3 defecations per week, (2) loose stools occurring rarely without laxatives, (3) inadequate criteria for irritable bowel syndrome with constipation (IBS-C), and (4) at least two of the following applied to at least 25% of defecations: (a) straining during evacuation, (b) lumpy or hard stools, (c) sensation of anorectal obstruction or blockage. Rome 3 requires patients to fulfill the criteria for the last 3 months with symptom onset at least 6 months prior to diagnosis.

[1] = Week 9, Active Combined, ITT Population-Excluding Duplicate Patients
[2] = Week 9, Active Combined, ITT Population
[3] = Week 10, 3 mg, ITT Population-Excluding Duplicate Patients
[4] = Week 10, 6 mg, ITT Population-Excluding Duplicate Patients
[5] = Week 10, Active Combined, ITT Population-Excluding Duplicate Patients
[6] = Week 10, Active Combined, ITT Population
[7] = Week 11, 3 mg, All Randomized (includes Duplicate Patients)
[8] = Week 11, 3 mg, ITT Population-Excluding Duplicate Patients
[9] = Week 11, 6 mg, All Randomized (includes Duplicate Patients)
[10] = Week 11, 6 mg, ITT Population-Excluding Duplicate Patients
[11] = Week 11, Active Combined, All Randomized (includes Duplicate Patients)
[12] = Week 11, Active Combined, ITT Population-Excluding Duplicate Patients
[13] = Week 11, Active Combined, ITT Population
[14] = Week 12, 3 mg, All Randomized (includes Duplicate Patients)
[15] = Week 12, 3 mg, ITT Population-Excluding Duplicate Patients
[16] = Week 12, 6 mg, All Randomized (includes Duplicate Patients)
[17] = Week 12, 6 mg, ITT Population-Excluding Duplicate Patients
[18] = Week 12, Active Combined, All Randomized (includes Duplicate Patients)
[19] = Week 12, Active Combined, ITT Population-Excluding Duplicate Patients
[20] = Week 12, Active Combined, ITT Population

## Asn^1-Asp^2-Glu^3-Cys^4-Glu^5-Leu^6-Cys^7-Val^8-Asn^9-Val^10-Ala^11-Cys^12-Thr^13-Gly^14-Cys^15-Leu^16 (NDECELCVNVACTGCL; disulfide 4-12, 7-15) [Plecanatide, uroguanylin analogue, guanylate cyclase-C agonist; (C4:C12, C7:C15) bicycle peptide]
Week 9, 6 mg vs placebo, ITT Population
  Odds Ratio (adjusted): 0.727
[1]
  CSBM Weekly Responders, n (%): 286 (32.6) n (%)
  Non-Responders, n (%): 591 (67.4) n (%)
[2]
  CSBM Weekly Responders, n (%): 288 (32.3) n (%)
  Non-Responders, n (%): 604 (67.7) n (%)
Week 10, 3 mg minus placebo, All Randomized (includes Duplicate Patients)
  Difference in Proportions (adjusted): 0.067
Week 10, 3 mg vs placebo, All Randomized (includes Duplicate Patients)
  Odds Ratio (adjusted): 0.708
Week 10, 3 mg, All Randomized (includes Duplicate Patients)
  Non-Responders, n (%): 328 (69.8) n (%)
Week 10, 3 mg, ITT Population
  CSBM Weekly Responders, n (%): 137 (30.9) n (%)
  Non-Responders, n (%): 306 (69.1) n (%)
[3]
  CSBM Weekly Responders, n (%): 136 (31.3) n (%)
  Non-Responders, n (%): 298 (68.7) n (%)
Week 10, 6 mg minus placebo, All Randomized (includes Duplicate Patients)
  Difference in Proportions (adjusted): 0.097
Week 10, 6 mg vs placebo, All Randomized (includes Duplicate Patients)
  Odds Ratio (adjusted): 0.619
Week 10, 6 mg, All Randomized (includes Duplicate Patients)
  Non-Responders, n (%): 315 (66.9) n (%)
Week 10, 6 mg, ITT Population
  CSBM Weekly Responders, n (%): 154 (34.3) n (%)
  Non-Responders, n (%): 295 (65.7) n (%)
[4]
  CSBM Weekly Responders, n (%): 153 (34.5) n (%)
  Non-Responders, n (%): 290 (65.5) n (%)
Week 10, Active Combined, All Randomized (includes Duplicate Patients)
  Non-Responders, n (%): 643 (68.3) n (%)
Week 10, 3 mg minus placebo, ITT Population-Excluding Duplicate Patients
  Difference in Proportions (adjusted): 0.064
Week 10, 3 mg minus placebo, ITT Population
  Difference in Proportions (adjusted): 0.062
Week 10, 3 mg vs placebo, ITT Population-Excluding Duplicate Patients
  Odds Ratio (adjusted): 0.729
Week 10, 3 mg vs placebo, ITT Population
  Odds Ratio (adjusted): 0.734
Week 10, 6 mg minus placebo, ITT Population-Excluding Duplicate Patients
  Difference in Proportions (adjusted): 0.096
Week 10, 6 mg minus placebo, ITT Population
  Difference in Proportions (adjusted): 0.096
Week 10, 6 mg vs placebo, ITT Population-Excluding Duplicate Patients
  Odds Ratio (adjusted): 0.630
Week 10, 6 mg vs placebo, ITT Population
  Odds Ratio (adjusted): 0.629
[5]
  CSBM Weekly Responders, n (%): 289 (33.0) n (%)
  Non-Responders, n (%): 588 (67.0) n (%)
[6]
  CSBM Weekly Responders, n (%): 291 (32.6) n (%)
  Non-Responders, n (%): 601 (67.4) n (%)
Week 11, 3 mg minus placebo, All Randomized (includes Duplicate Patients)
  Difference in Proportions (adjusted): 0.089
Week 11, 3 mg vs placebo, All Randomized (includes Duplicate Patients)
  Odds Ratio (adjusted): 0.643
[7]
  CSBM Weekly Responders, n (%): 153 (32.6) n (%)
  Non-Responders, n (%): 317 (67.4) n (%)
Week 11, 3 mg, ITT Population
  CSBM Weekly Responders, n (%): 147 (33.2) n (%)
  Non-Responders, n (%): 296 (66.8) n (%)
[8]
  CSBM Weekly Responders, n (%): 147 (33.9) n (%)
  Non-Responders, n (%): 287 (66.1) n (%)
Week 11, 6 mg minus placebo, All Randomized (includes Duplicate Patients)
  Difference in Proportions (adjusted): 0.082
Week 11, 6 mg vs placebo, All Randomized (includes Duplicate Patients)
  Odds Ratio (adjusted): 0.664
[9]
  CSBM Weekly Responders, n (%): 150 (31.8) n (%)
  Non-Responders, n (%): 321 (68.2) n (%)
Week 11, 6 mg, ITT Population
  CSBM Weekly Responders, n (%): 145 (32.3) n (%)
  Non-Responders, n (%): 304 (67.7) n (%)
[10]
  CSBM Weekly Responders, n (%): 144 (32.5) n (%)
  Non-Responders, n (%): 299 (67.5) n (%)
[11]
  CSBM Weekly Responders, n (%): 303 (32.2) n (%)
  Non-Responders, n (%): 638 (67.8) n (%)
Week 11, 3 mg minus placebo, ITT Population-Excluding Duplicate Patients
  Difference in Proportions (adjusted): 0.089
Week 11, 3 mg minus placebo, ITT Population
  Difference in Proportions (adjusted): 0.086
Week 11, 3 mg vs placebo, ITT Population-Excluding Duplicate Patients
  Odds Ratio (adjusted): 0.649
Week 11, 3 mg vs placebo, ITT Population
  Odds Ratio (adjusted): 0.654
Week 11, 6 mg minus placebo, ITT Population-Excluding Duplicate Patients
  Difference in Proportions (adjusted): 0.076
Week 11, 6 mg minus placebo, ITT Population
  Difference in Proportions (adjusted): 0.078
Week 11, 6 mg vs placebo, ITT Population-Excluding Duplicate Patients
  Odds Ratio (adjusted): 0.690
Week 11, 6 mg vs placebo, ITT Population
  Odds Ratio (adjusted): 0.68
[12]
  CSBM Weekly Responders, n (%): 291 (33.2) n (%)
  Non-Responders, n (%): 586 (66.8) n (%)
[13]
  CSBM Weekly Responders, n (%): 292 (32.7) n (%)
  Non-Responders, n (%): 600 (67.3) n (%)
Week 12, 3 mg minus placebo, All Randomized (includes Duplicate Patients)
  Difference in Proportions (adjusted): 0.068
Week 12, 3 mg vs placebo, All Randomized (includes Duplicate Patients)
  Odds Ratio (adjusted): 0.711
[14]
  CSBM Weekly Responders, n (%): 145 (30.9) n (%)
  Non-Responders, n (%): 325 (69.1) n (%)
Week 12, 3 mg, ITT Population
  CSBM Weekly Responders, n (%): 140 (31.6) n (%)
  Non-Responders, n (%): 303 (68.4) n (%)
[15]
  CSBM Weekly Responders, n (%): 140 (32.3) n (%)
  Non-Responders, n (%): 294 (67.7) n (%)
Week 12, 6 mg minus placebo, All Randomized (includes Duplicate Patients)
  Difference in Proportions (adjusted): 0.088
Week 12, 6 mg vs placebo, All Randomized (includes Duplicate Patients)
  Odds Ratio (adjusted): 0.647
[16]
  CSBM Weekly Responders, n (%): 155 (32.9) n (%)
  Non-Responders, n (%): 316 (67.1) n (%)
Week 12, 6 mg, ITT Population
  CSBM Weekly Responders, n (%): 151 (33.6) n (%)
  Non-Responders, n (%): 298 (66.4) n (%)
[17]
  CSBM Weekly Responders, n (%): 150 (33.9) n (%)
  Non-Responders, n (%): 293 (66.1) n (%)
[18]
  CSBM Weekly Responders, n (%): 300 (31.9) n (%)
  Non-Responders, n (%): 641 (68.1) n (%)
Week 12, 3 mg minus placebo, ITT Population-Excluding Duplicate Patients
  Difference in Proportions (adjusted): 0.066
Week 12, 3 mg minus placebo, ITT Population
  Difference in Proportions (adjusted): 0.062
Week 12, 3 mg vs placebo, ITT Population-Excluding Duplicate Patients
  Odds Ratio (adjusted): 0.724
Week 12, 3 mg vs placebo, ITT Population
  Odds Ratio (adjusted): 0.737
Week 12, 6 mg minus placebo, ITT Population-Excluding Duplicate Patients
  Difference in Proportions (adjusted): 0.082
Week 12, 6 mg minus placebo, ITT Population
  Difference in Proportions (adjusted): 0.082
Week 12, 6 mg vs placebo, ITT Population-Excluding Duplicate Patients
  Odds Ratio (adjusted): 0.673
Week 12, 6 mg vs placebo, ITT Population
  Odds Ratio (adjusted): 0.672
[19]
  CSBM Weekly Responders, n (%): 290 (33.1) n (%)
  Non-Responders, n (%): 587 (66.9) n (%)
[20]
  CSBM Weekly Responders, n (%): 291 (32.6) n (%)
  Non-Responders, n (%): 601 (67.4) n (%)
